Results reported in patent US6166038A, “Aminopyrazole derivatives” (Banyu Pharmaceutical Co., Ltd., priority 1996, dated 2000).

Molecular target: T1, human NPY Y5 receptor (Homo sapiens, UniProt Q15761)
T1 construct: expressed in transfected cells; host or cells: COS-7, CHO and LM(tk-)
T1 sequence (Q15761 1-445): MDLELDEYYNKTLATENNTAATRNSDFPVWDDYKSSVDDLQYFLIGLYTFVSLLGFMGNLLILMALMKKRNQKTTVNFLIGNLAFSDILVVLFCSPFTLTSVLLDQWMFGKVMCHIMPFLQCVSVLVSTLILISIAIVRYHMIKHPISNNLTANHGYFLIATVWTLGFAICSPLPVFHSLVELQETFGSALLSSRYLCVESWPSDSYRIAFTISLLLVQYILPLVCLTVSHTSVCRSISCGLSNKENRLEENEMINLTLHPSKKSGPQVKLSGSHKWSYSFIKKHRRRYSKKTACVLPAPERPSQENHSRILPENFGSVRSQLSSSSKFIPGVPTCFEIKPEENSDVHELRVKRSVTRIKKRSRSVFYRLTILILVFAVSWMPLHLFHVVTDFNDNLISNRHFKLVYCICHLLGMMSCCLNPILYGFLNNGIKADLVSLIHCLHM
Assay: test of inhibition of NPY binding ([125I] peptide YY binding to membranes of NPY Y5 receptor-expressing cells)
Details: [125I] peptide YY, 20,000 cpm, 25° C., 2 hours, pH 7.4; membranes of transfected cells; read-out: IC50 value (inhibition of specific binding of peptide YY)
Text: cDNA Sequence encoding a human NPY Y5 receptor [International Publication Wo 96/16542] was cloned into expression vectors pcDNA3, pRc/RSV (manufactured by Invitrogen) and pCI-neo (manufactured by Promega). Using the cationic lipid method [see Proceedings of the National Academy of Science of the United States of America, vol.84, p.7413 (1987)], host cells COS-7, CHO and LM(tk-) (American Type Culture Collection) were transfected with the thus prepared expression vectors to obtain cells in which the NPY Y5 receptor had been expressed.
Each of the membrane preparations thus prepared from the cells in which the NPY Y5 receptor had been expressed was incubated together with each compound to be tested and 20,000 cpm of [^125 I] peptide YY (manufactured by Amersham) at 25° C. for 2 hours in an assay buffer solution (25 mM HEPES buffer, pH 7.4, containing 10 mM magnesium chloride, 1 mM phenylmethylsulfonyl fluoride and 0.1% bacitracin) and then, the reaction mixture was filtered through a glass filter GF/C. After washing with 50 mM Tris buffer, pH 7.4, containing 0.3% BSA, radioactivity on the glass filter was measured using a gamma counter. […]

COc1ccc(-c2cc(NC(=O)C3CCN(c4cccc(Cl)c4)CC3)n[nH]2)cc1 [Example 4, 3-[1-(3-chlorophenyl)piperidin-4-yl]carbonylamino-5-(4-methoxyphenyl)pyrazole]
IC50: 39 nM
